Several values for one entry are separate records, joined by “and”; a condition that tells them apart may be missing. Identical values can stand only once.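 How tested: cells in 96-well plates exposed to compound for 48 hours at five concentrations. The concentration for 50% growth inhibition is given as GI50. Definition used: TGI = concentration required for complete inhibition of growth.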
What was measured:
Test in all cases: NCI anticancer screen, dose series, 48 h
[1] = tested on: KM20L2 colon
[2] = tested on: SNB-78 CNS
[3] = tested on: HOP-62 NSCLC
[4] = tested on: M19-MEL melanoma
[5] = tested on: HOP-18 NSCLC
[6] = tested on: BT-549 breast
[7] = tested on: T-47D breast
[8] = tested on: DLD-1 colon
[9] = tested on: NCI/ADR-RES ovarian
[10] = tested on: MDA-MB-435
[11] = tested on: DU-145 prostate
[12] = tested on: DMS 273 small cell lung
[13] = tested on: DMS 114 small cell lung

SMILES	TGI [1] [µM]	TGI [2] [µM]	TGI [3]	TGI [4] [µM]	TGI [5] [µM]	TGI [6] [µM]	TGI [7] [µM]	TGI [8] [µM]	GI50 [3] [µM]	TGI [9] [µM]	GI50 [10] [µM]	TGI [10] [µM]	GI50 [6] [µM]	GI50 [11] [µM]	TGI [11] [µM]	GI50 [9] [µM]	TGI [12] [µM]	GI50 [7] [µM]	TGI [13] [µM]
CC(=O)C1C(=O)C(=O)N(c2ccccc2C(C)C)C1=O (stereo not drawn)	> 100	> 100	> 100 µM	> 100	> 100														
COc1ccc(/C=C\c2cc(OC)c(OC)c(OC)c2)cc1OC	0.141	40.4	40.4 µM and > 100 µM		40.4	> 100	> 100	40.4	0.58	> 100									
CN(C)c1ccc2c(c1)OC(N)=C(C#N)C2c1ccc2c(c1)CCO2 (stereo not drawn)			> 76.7 µM			12.4	56.4			> 22.1	< 0.0156	0.095	0.0385	0.229	> 100	< 0.0279			
O=C1CC(S(=O)(=O)O)C=C1Nc1cccc(Cl)c1 (stereo not drawn)	> 100	> 100	> 100 µM	> 100	> 100			> 100									> 100		
Cc1ccc(CNc2c3ccccc3nc3cc(NC(=O)CCN4CCCC4)ccc23)cc1			2.38 µM			2.88	3.02		0.68	24.2	1.33	2.62	1.47	0.516	1.66	4.02		0.751	
CN1c2ccccc2N(C)C23N(C)c4ccccc4N(C)C12N(C)c1ccccc1N3C (stereo not drawn)	> 100		> 100 µM	> 100				> 100									> 100		> 100
CCc1ccc(NC(=O)COC(=O)c2cc([N+](=O)[O-])ccc2Sc2nnnn2C)cc1			36 µM			26.6	82.4		15.2	47.2	3.42	21.4	4.42	4.9	28.2	5.66		18.5	
Clc1nc(Cl)c2ncn(C/C=C/COc3cccc(OC/C=C/Cn4cnc5c(Cl)nc(Cl)nc54)c3)c2n1			> 100 µM			> 100	> 100		99.6	> 100	> 100	> 100	66.1	14.7	27.8	> 100		99.8	
COc1ccc2ccccc2c1C1OC(=O)c2ccccc21 (stereo not drawn)	> 100	> 100	> 100 µM	> 100	> 100			> 100									> 100		> 100
Nc1nc(Nc2ccc(C3CCC(N4CCOCC4)CC3)cc2)nn1-c1ccccn1 (stereo not drawn)			> 68.4 µM			6.54	> 100		3.04	> 100	3.57	> 100	2.52	6.4	> 100	9.33		> 31.5	
